Consider one compound from US20250368623A1, “PYRIDAZINONE-DERIVED COMPOUNDS FOR THE MODULATION OF MYC AND FOR MEDICAL USES” (GENETIC INTELLIGENCE, INC, priority 2022, published 2025).

The structures appear in SMILES notation.

For one assay, the system named is HEK-293. Put plainly: ApoTox-Glo Triplex assay (live-dead ratio), HEK-293. It is filed as cell-based. The settings on record: Homo sapiens, HEK293, 48 h, HEK-293, 2-day incubation.
The next assay deals with MYC protein. Kind of assay: MYC HTRF assay, MYC protein level in human cell lines. Particulars: about 20 μM, 2-day incubation, human cell lines (e.g., A549, HepG2), vs DMSO-treated sample. It is filed as cell-based. How it is done:
The MYC homogenous time-resolved fluorescence (HTRF) assay kit (CisBio/Perkin Elmer 63ADK053PEG) is used to quantify the level of MYC protein in human cell lines (e.g., A549, HepG2) following treatment with test compounds, according to the following protocol. Human cells cultured in DMEM-10% FBS media are seeded at 20,000 cells per well in a 96-well plate. After 1 day, the cells are treated with test compounds at a final concentration of about 20 μM. After a 2-day incubation period, the supernatant is removed from the wells and the HTRF assay is carried out according to the kit manufacturer's protocol. In brief, lysis buffer #4 is added to create cell lysates. 10 μL of cell lysate is added to 10 μL of premixed antibody solution (anti-human My c-Eu cryptate antibody and anti-human Myc-d2 antibody) prepared in detection buffer #3 in a 384-well low-volume white-walled plated. After 3 h of incubation, fluorescence readings are taken at the emission wavelengths of donor and acceptor fluorophores (620 nm and 665 nm respectively) using a HTRF-compatible plate reader. The ratio of acceptor and donor fluorescence emission signals for each sample is calculated by dividing the fluorescence signal at 665 nm by the signal at 620 nm, and further normalized by dividing with the concentration of total protein in that sample as determined by the BCA assay. The values so obtained are presented as a percentage of that of the no-compound, solvent only (DMSO)-treated samples. A lower percentage of MYC protein in a sample with respect to the DMSO-treated sample indicates greater percentage reduction in MYC protein level due to the test compound, and vice versa.
In general terms: In TR-FRET formats the signal depends on donor and acceptor labels being close together.

Procedure for HEK-293: The effects of test compounds on cell viability and apoptosis are determined using the ApoTox-Glo Triplex assay kit (Promega G6320) according to the following protocol. The human cancer cell line (e.g., HepG2) and a non-cancer human cell line (e.g., HEK-293), are seeded at 20,000 cells per well in a 96-well plate. After 1 day, the cells are treated with test compounds at various final concentrations (e.g., 10 nM, 31.6 nM, 100 nM, 316 nM, 1 μM, 3.16 μM, 10 μM, 20 μM, etc.). After a 2-day incubation period, the ApoTox-Glo Triplex assay is performed according to the kit manufacturer's protocol. […] After incubation for 30 minutes at 37° C., the fluorescence signal is measured at two wavelength sets (400Ex/505Em) and (485Ex/520Em) to assess live-cell protease activity and dead-cell protease activity respectively. […] After incubation for 30 minutes at room temperature, the luminescent signal is measured using a microplate reader. […]
The cytotoxic effect of test compounds according to the ApoTox-Glo Triplex assay is calculated as follows. The live-dead ratio is calculated by dividing the fluorescence signal for live-cell protease activity with the fluorescence signal for dead-cell protease activity. […]

One may read the IC50 as the concentration that gives 50% inhibition. In the case of `Cc1nc(C)c(-c2ccc(=O)n(CC3CCN(c4ncnc5ncccc45)CC3)n2)s1` [6-(2,4-dimethylthiazol-5-yl)-2-((1-(pyrido[2,3-d]pyrimidin-4-yl)piperidin-4-yl)methyl)pyridazin-3(2H)-one], the IC50 in the assay with HEK-293 was found to be 35.9 µM. Further, the “% reduction of MYC protein” value in the assay with MYC protein was determined as 72%.
